Test results as given in PubChem BioAssay AID743396 (Broad Institute, 2014).
Calls of active or inactive are those of the source.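 How the source made its calls: active means fitted curve reaches a 40% rise in fluorescent cells at or below the top valid dose; inactive means opposite-direction effect, or the rest.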

Experiment: compound fluorescence in GFP channel, mTEFS cells – imaging, mTEFS fibroblasts, cherry-pick, artefact control for X-chromosome reactivation project, dose response (AID 743396);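 further: raw share of Hoechst-counted cells scored GFP positive without control normalization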
Settings: mTEFS fibroblasts autofluorescence, GFP-channel imaging, 3 days; at 19.5 µM (top of the series); cells pretreated with 5-aza-dC
In the case of `COc1cc(NC(C)CCc2ccccc2)cc(OC)c1OC` (configuration not stated), the % fluorescent cells increase was 0% (inactive).
With `C[C@@H]1C[C@H]2[C@@H]3CCC4=CC(=O)C=C[C@]4(C)[C@@]3(F)[C@@H](O)C[C@]2(C)[C@H]1C(=O)CO` the % fluorescent cells increase was 0% (inactive).
In the case of `COc1ccc(NC(=O)Nc2ccc3c(c2)C(=O)N([C@H](C)CO)C[C@H](C)[C@H](CN(C)Cc2ccc4c(c2)OCO4)O3)cc1`, the % fluorescent cells increase was -0.166% (inactive).
In the case of `CCOc1cccc(/C=N/NC(=S)Nc2cc(S(=O)(=O)N3CCOCC3)ccc2N2CCOCC2)c1O`, the % fluorescent cells increase was 0% (inactive).
In the case of `Cc1cccc(NC(=O)Cn2cnc3c(oc4nc5c(cc43)COC(C)(C)C5)c2=O)c1`, the % fluorescent cells increase was 2.35% (inactive).
With `CCOCCCNC(=O)/C(C#N)=C/c1ccc([N+](=O)[O-])o1` the % fluorescent cells increase was 9.9% (inactive).
In the case of `CC(=O)N(C)C[C@@H]1Oc2ncc(-c3cccnc3)cc2C(=O)N([C@@H](C)CO)C[C@@H]1C`, the % fluorescent cells increase was 0.097% (inactive).
With `Cn1c(NC(=O)c2ccc(F)cc2)c(-c2ccccn2)c(=O)c2ccccc21` the % fluorescent cells increase was 0.007% (inactive).
For `O=C(COC(=O)COc1cccc(C(F)(F)F)c1)NC1CCS(=O)(=O)C1` (configuration not stated), the % fluorescent cells increase was 0.015% (inactive).
With `CC(C)n1c(NCc2cc(Cl)ccc2O)nc2ccccc21` the % fluorescent cells increase was -0.007% (inactive).
With `CC(=O)Nc1sc(N/N=C/c2ccc(N(C)C)cc2)nc1-c1ccc(C)cc1` the % fluorescent cells increase was -0.004% (inactive).
For `COC(=O)c1cc(C(=O)N2CCN(c3ccccc3OC)CC2)cc([N+](=O)[O-])c1`, the % fluorescent cells increase was 0% (inactive).
With `Cc1cccn2c(=O)c3cc(C(=O)NCc4ccc(F)cc4)c(=N)n(CCCN4CCOCC4)c3nc12` the % fluorescent cells increase was 0% (inactive).
In the case of `CCCNNC(=O)C(O)(c1ccccc1)c1ccccc1`, the % fluorescent cells increase was 0.02% (inactive).
In the case of `CCc1nc(C)cn1S(=O)(=O)c1ccc([N+](=O)[O-])cc1`, the % fluorescent cells increase was 0.011% (inactive).
For `CCCN1CCN(C(=O)C2CCN(c3nnc(C)c4c(C)n(-c5ccc(C)cc5)nc34)CC2)CC1`, the % fluorescent cells increase was 0.895% (inactive).
In the case of `CC(=O)OCCNc1cc(Sc2nc3ccccc3[nH]2)c2nonc2c1[N+](=O)[O-]`, the % fluorescent cells increase was 9.92% (inactive).
For `CCN1CCN(c2cc(C)c3cc(NC(=O)c4cccs4)ccc3n2)CC1`, the % fluorescent cells increase was 0.257% (inactive).
With `CCC1Oc2ccc(C)cc2N(CC(=O)N2CCCC2)C1=O` (configuration not stated) the % fluorescent cells increase was 0.001% (inactive).
With `Cc1cc(=O)[nH]c(N/N=C/c2cc(C)n(-c3ccccc3)c2C)n1` the % fluorescent cells increase was 0% (inactive).
For `CC(C)OC(=O)CC(=O)CSc1nc(-c2ccc(F)cc2)cc(-c2ccccc2)c1C#N`, the % fluorescent cells increase was 0.594% (inactive).
With `CCOC(=O)c1nn(-c2ccc3ccccc3c2)cc1O` the % fluorescent cells increase was 0.04% (inactive).
In the case of `O=C(CC1C(=O)Nc2ccccc2N1CC(=O)N1CCCC1)Nc1ccc(Br)cc1` (configuration not stated), the % fluorescent cells increase was 0% (inactive).
In the case of `O=C1C=CC(=O)C(CNc2ccc(C(=O)OCc3ccccc3)cc2)=C1`, the % fluorescent cells increase was 0% (inactive).
For `COC(=O)c1ccc(-n2c(C)cc(C(=O)COC(=O)C3=COCCO3)c2C)cc1`, the % fluorescent cells increase was -0.007% (inactive).
For `COc1ccc(-n2ncc(Cl)c(Cl)c2=O)cc1`, the % fluorescent cells increase was 0% (inactive).
For `COC(=O)c1c(NC(=O)c2ccccc2)sc2c1CC(C)(C)NC2(C)C`, the % fluorescent cells increase was -0.011% (inactive).
In the case of `COc1cc(C(=O)NC(=S)Nc2cccc3nc(C)ccc23)cc(OC)c1OC`, the % fluorescent cells increase was 0.128% (inactive).
For `Cc1ccc(NC(=O)c2ncn(CCCNCCCN(C)C)n2)cc1C`, the % fluorescent cells increase was 0% (inactive).
With `COc1ccccc1NC(=S)N(CCCN1CCOCC1)Cc1cccs1` the % fluorescent cells increase was -0.007% (inactive).
For `O=[N+]([O-])/C=C/c1ccc2c(ccn2Cc2ccccc2)c1`, the % fluorescent cells increase was 0% (inactive).
With `CCOC(=O)[C@]12CCC=C1N(Cc1ccccc1)C(=O)[C@H](CC(=O)N1CCSCC1)C2` the % fluorescent cells increase was 0.038% (inactive).
In the case of `COC(=O)c1cc(NS(=O)(=O)c2ccc(NC(C)=O)cc2)ccc1Cl`, the % fluorescent cells increase was 0% (inactive).
In the case of `CCOC(=O)c1sc2nc(CSc3ccccc3)[nH]c(=O)c2c1C`, the % fluorescent cells increase was 0.048% (inactive).
For `COC(=O)c1cnn(-c2ccccc2)c1N`, the % fluorescent cells increase was 0.008% (inactive).
With `COc1ccc(NC(=O)CCc2ccccc2)cc1S(=O)(=O)N1CCCCC1` the % fluorescent cells increase was 0.183% (inactive).
For `COc1ccc(CN(C)Cc2nc(Cc3ccccc3Cl)no2)cc1OC`, the % fluorescent cells increase was 0.025% (inactive).
In the case of `Cc1cccc(CS(=O)(=O)Cc2ccc(C(=O)NCc3cccs3)o2)c1`, the % fluorescent cells increase was 0.029% (inactive).
In the case of `COc1ccc(OC)c(NC(=O)Nc2ccc3[nH]ccc3c2)c1`, the % fluorescent cells increase was 0% (inactive).
For `COc1ccc(CCn2c(C)cc(C(=O)CN3C(=O)C(=O)N(Cc4ccco4)C3=O)c2C)cc1`, the % fluorescent cells increase was 0% (inactive).
For `O=[N+]([O-])c1c(Nc2ccc(O)cc2)cc(Cl)c2nonc12`, the % fluorescent cells increase was -0.006% (inactive).
For `O=C1c2ccccc2C(=Cc2cccnc2)c2ccccc21`, the % fluorescent cells increase was 0.125% (inactive).
